Data published in publication PMC10667535 (Nature Communications, 2023).

Molecular target: T1, RSp0980 (Ralstonia pseudosolanacearum, UniProt Q8XR79)
T1 construct: gene narL
Assay: biochemical

T1 sequence (Q8XR79 1-222): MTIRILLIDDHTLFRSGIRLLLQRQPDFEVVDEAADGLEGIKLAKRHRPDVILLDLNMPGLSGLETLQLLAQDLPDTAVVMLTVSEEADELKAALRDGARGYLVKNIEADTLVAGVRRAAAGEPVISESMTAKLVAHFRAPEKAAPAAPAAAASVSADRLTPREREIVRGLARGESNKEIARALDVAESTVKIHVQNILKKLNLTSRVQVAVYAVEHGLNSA

Nc1nc2c(ncn2[C@@H]2O[C@@H]3COP(=O)(O)O[C@@H]4[C@H](O)[C@@H](COP(=O)(O)O[C@H]3[C@H]2O)O[C@H]4n2cnc3c(=O)[nH]c(N)nc32)c(=O)[nH]1 [2′,3′-c-di-GMP] gave a Kd of 126 ± 1.12 µM.
Nc1nc2c(ncn2[C@@H]2O[C@@H]3CO[P@](=O)(O)O[C@H]4[C@@H](O)[C@H](n5cnc6c(=O)[nH]c(N)nc65)O[C@@H]4CO[P@](=O)(O)O[C@H]3[C@H]2O)c(=O)[nH]1 [bis-3′,5′-c-di-GMP] was tested, and the Kd was 130.4 ± 1.3 µM.
In the case of Nc1ncnc2c1ncn2[C@@H]1O[C@H](CO)[C@H]2OP(=O)(O)O[C@H]21 [2′,3′-cAMP], the Kd is reported as 82 ± 0.93 µM.
